Assay results as given in US20140230091A1, “MODIFIED PLANTS WITH INCREASED OIL CONTENT” (BROOKHAVEN SCIENCE ASSOCIATES, LLC, priority 2011, published 2014).

What was measured:
[1] = tested on: Brassica napus cv Jet Neuf suspension cell cultures; assay: Cell culture growth and analysis of B. napus suspension cells fed Tween-80; format: cell-based; settings: concentrations up to 10 mM
Experimental: Brassica napus cv Jet Neuf suspension cell cultures were grown in NLN medium (Lichter 1982, Z. Pflanzenphysiol, 105, 427-434) with modifications (Shi et al. 2008, Plant Cell Tiss Org, 92 131-139). Cells were grown shaking at 160 rpm at 25° C. in either 50 mL or 100 mL volumes (in 125 mL or 250 mL flasks, respectively) under constant fluorescent light at 50 […]. Medium was refreshed every 48 h for experiments lasting longer than two days. Tween-esters were obtained from Sigma (St. Louis, Mo. USA). A 150 mM stock solution was made by dissolving 9.8 g in 50 mL of water and it was filter sterilized before addition to cultures. Subculturing was done every eight days and new cultures were inoculated with about 200 mg of cells. Cells were harvested by filtering with a Buchner funnel, were rinsed three times with distilled water, and were frozen immediately in liquid N2 in preweighed aluminum foil pouches. Dry weight to fresh weight ratio was determined by lyophilizing a known fresh weight of cells. For SDS-PAGE, proteins were extracted in 3 volumes (w/v) of 50 mM Tris-Cl, pH 7.5, 10 mM KCl, 5 mM MgCl2, 1 mM EDTA, 1 mM DTT, 0.1% Triton X-100, and were quantified by Bradford assay.
In order to study the feedback regulation of fatty acid synthesis it was necessary to first establish conditions where fatty acids could be fed while minimizing any negative pleiotropic effects. […]

B. napus cells = assay: Quantification of free fatty acid, acyl-ACP and acyl-CoA pools in cells; format: cell-based, Brassica napus; settings: after three hours of Tween-80 feeding
Experimental: Free fatty acids were extracted from tissue by quenching ˜300 mg of frozen cells in 2 mL boiling isopropanol for 5 min. Once cooled, 2 mL of 0.9% NaCl was added and lipids were extracted twice with 4 mL of hexane. Neutral lipids were separated by TLC and free fatty acids were scraped, made into FAMEs, and analyzed by GC-FID or GC-MS as described above. Acyl-CoAs were extracted from ˜15 mg FW of cells and quantified as previously described (Larson and Graham 2001, Plant J, 25, 115-125). Acyl-ACPs were extracted and quantified as previously described (Kopka, Ohlrogge and Jaworski 1995, Anal Biochem, 224, 51-60) with the following modifications: 1) Internal standards used were 11:0-CoA (Sigma) and 17:0—ACP made from Spinach ACP as previously described (Broadwater and Fox 1999, Protein Expr Purif, 15, 314-326). 2) Fully dissolving TCA precipitated proteins required three extractions with MOPS buffer rather than just one.
1986 Plant Physiol, 82, 771-779). Free fatty acids can be activated by esterification to CoA or ACP before being deposited in cellular lipids. Steady state pools acyl-ACP and acyl-CoA as well as free fatty acids (FFA) were measured in cells fed Tween-80. After three hours of feeding, 18:1 FFA appeared where there was none detected in untreated cells (FIG. 9a). […] In a separate experiment designed to distinguish the incorporation of fatty acids from Tween from secondary effects of feedback inhibition, FFA and acylACPs were analyzed in cells fed ^13C-oleoyl-Tween. […] First, the in vivo concentrations of these intermediates were calculated based on the range of values in FIG. 9 and the water content of the cells. […] However, considering that acyl-ACPs are restricted to the plastid, the volume of which in developing embryos was determined to be 10% of the cell (Mansfield and Briarty 1992, Can J Bot, 70, 151-164), the estimate increased to 5-10 μM. […] Thioesterase activity was measured using the same conditions as the ACCase assay. […]

Tween-80
effect on growth rate [1]: no effect | change in amount of 18:1-ACP and 18:1-CoA (B. napus cells): double in amount
